Measured values published in ChEMBL document CHEMBL4613271, “Application of Atypical Acetyl-lysine Methyl Mimetics in the Development of Selective Inhibitors of the Bromodomain-Containing Protein 7 (BRD7)/Bromodomain-Containing Protein 9 (BRD9) Bromodomains” (J Med Chem, 2020).
Values after ≈ are worked out from the molar mass of the structure shown. Active and inactive are the calls of the source. The rule behind the calls is not given here.

What was measured:
[1] = target: T1, Bromodomain-containing protein 7 (Homo sapiens, UniProt Q9NPI1); assay: Binding affinity to BRD7 (unknown origin)
T1 sequence (Q9NPI1 whole entry): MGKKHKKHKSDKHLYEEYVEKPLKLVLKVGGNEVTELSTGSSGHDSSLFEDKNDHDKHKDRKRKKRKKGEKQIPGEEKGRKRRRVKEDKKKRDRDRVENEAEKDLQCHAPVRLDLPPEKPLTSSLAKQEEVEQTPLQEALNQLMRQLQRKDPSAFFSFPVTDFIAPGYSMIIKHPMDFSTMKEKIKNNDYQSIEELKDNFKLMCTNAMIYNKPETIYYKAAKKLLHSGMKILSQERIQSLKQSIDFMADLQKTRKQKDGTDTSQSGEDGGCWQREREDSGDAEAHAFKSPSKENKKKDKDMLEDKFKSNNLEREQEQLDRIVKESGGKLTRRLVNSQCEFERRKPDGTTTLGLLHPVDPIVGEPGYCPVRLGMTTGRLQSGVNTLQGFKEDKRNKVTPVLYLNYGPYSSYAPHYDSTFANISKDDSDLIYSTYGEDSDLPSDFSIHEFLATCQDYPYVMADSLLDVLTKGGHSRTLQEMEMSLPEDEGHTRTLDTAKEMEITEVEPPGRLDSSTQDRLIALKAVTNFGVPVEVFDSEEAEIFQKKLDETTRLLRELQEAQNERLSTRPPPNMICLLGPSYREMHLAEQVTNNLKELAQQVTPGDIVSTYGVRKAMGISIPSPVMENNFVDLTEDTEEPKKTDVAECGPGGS

[2] = Chromatographic hydrophobicity index, logD of the compound at pH 7.4 by HPLC analysis; format: physicochemical; settings: buffer
[3] = target: T1, Bromodomain-containing protein 7; assay: Binding affinity to human partial length BRD7 (L125 to R254 residues) expressed in mammalian expression system by BROMOscan assay
[4] = target: T2, Peregrin (Homo sapiens, UniProt P55201); assay: Binding affinity to human partial length BRPF1 (E627 to G740 residues) expressed in bacterial expression system by BROMOscan assay
T2 sequence (P55201 whole entry): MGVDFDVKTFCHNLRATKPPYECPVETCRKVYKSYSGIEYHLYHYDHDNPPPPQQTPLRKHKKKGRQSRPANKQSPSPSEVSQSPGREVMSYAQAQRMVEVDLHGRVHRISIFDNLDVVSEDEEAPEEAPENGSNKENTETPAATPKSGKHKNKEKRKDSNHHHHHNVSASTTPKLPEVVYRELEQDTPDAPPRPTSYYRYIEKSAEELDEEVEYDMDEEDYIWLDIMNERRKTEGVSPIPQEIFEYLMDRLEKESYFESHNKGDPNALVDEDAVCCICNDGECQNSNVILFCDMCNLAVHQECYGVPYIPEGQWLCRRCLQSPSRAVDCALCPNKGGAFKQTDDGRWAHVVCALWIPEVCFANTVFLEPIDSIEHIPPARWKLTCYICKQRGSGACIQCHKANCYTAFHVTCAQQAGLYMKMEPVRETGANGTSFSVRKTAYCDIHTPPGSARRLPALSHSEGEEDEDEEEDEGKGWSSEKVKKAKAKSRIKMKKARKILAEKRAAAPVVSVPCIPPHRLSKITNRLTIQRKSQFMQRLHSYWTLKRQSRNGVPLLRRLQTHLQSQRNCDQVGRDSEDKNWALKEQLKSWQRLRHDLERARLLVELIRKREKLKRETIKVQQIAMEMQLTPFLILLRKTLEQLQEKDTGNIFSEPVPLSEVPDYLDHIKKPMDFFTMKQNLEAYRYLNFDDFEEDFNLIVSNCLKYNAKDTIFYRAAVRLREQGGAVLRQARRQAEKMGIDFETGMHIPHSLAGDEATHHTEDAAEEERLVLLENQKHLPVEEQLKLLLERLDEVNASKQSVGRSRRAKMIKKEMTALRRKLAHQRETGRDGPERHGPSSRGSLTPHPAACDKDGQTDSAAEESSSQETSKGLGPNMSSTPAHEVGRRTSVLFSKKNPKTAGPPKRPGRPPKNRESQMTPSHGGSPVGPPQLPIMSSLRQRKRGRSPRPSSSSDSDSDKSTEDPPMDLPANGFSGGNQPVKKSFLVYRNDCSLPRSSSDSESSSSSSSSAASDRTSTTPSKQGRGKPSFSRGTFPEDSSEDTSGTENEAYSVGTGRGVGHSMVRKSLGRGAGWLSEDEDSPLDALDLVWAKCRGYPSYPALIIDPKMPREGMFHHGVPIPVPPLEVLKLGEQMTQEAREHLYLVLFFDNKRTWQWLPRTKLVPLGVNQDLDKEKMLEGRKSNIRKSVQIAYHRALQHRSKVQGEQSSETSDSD

[5] = Solubility of compound by CLND method; format: physicochemical
[6] = Permeability by PAMPA; format: ADME; settings: read-out: permeability
[7] = target: T3, Bromodomain-containing protein 4 (Homo sapiens, UniProt O60885); assay: Binding affinity to human partial length BRD4 (1) (N44 to E168 residues) expressed in bacterial expression system by BROMOscan assay
[8] = Drug distribution in human HeLa cells assessed as intracellular influx/efflux ratio by mass spectrometry; format: ADME, cell-based
[9] = target: T4, Bromodomain-containing protein 9 (Homo sapiens, UniProt Q9H8M2)
T4 sequence (Q9H8M2 whole entry): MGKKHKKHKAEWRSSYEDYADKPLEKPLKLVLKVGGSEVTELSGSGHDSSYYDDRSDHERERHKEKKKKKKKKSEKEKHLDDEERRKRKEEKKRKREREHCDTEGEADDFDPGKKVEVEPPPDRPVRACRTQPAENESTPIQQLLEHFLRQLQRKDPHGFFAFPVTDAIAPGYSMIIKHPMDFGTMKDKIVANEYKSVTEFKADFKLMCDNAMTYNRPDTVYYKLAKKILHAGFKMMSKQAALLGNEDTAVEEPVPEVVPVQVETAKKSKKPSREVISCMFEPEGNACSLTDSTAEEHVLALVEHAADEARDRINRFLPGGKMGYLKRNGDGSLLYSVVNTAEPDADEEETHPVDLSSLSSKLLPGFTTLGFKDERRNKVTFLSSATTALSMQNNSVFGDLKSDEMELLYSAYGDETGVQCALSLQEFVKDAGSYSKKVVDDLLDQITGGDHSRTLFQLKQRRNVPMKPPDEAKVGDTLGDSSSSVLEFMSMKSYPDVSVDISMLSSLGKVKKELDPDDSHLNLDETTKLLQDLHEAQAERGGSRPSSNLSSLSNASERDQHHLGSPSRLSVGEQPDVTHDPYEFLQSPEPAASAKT
Description: Binding affinity to human partial length BRD9 (R130 to V259 residues) expressed in bacterial expression system by BROMOscan assay

[10] = target: T4, Bromodomain-containing protein 9; assay: Binding affinity to BRD9 (unknown origin) N-terminal bromodomain by TR-FRET assay
[11] = target: T3, Bromodomain-containing protein 4; assay: Binding affinity to BRD4 (1) (unknown origin) N-terminal bromodomain by TR-FRET assay
[12] = target: T5, Bromodomain-containing protein 7 (Homo sapiens) (UniProt Q9NPI1); assay: Binding affinity to BRD7 in human HuT78 cells nuclear and chromatin extracts at 10 uM incubated for 45 mins by mass spectrometry based chemoproteomic binding assay; format: cell-based
T5 sequence (whole entry): T1 sequence (Q9NPI1 whole entry)

[13] = target: B-cell CLL/lymphoma 7 protein family member A (Homo sapiens) (UniProt Q4VC05); assay: Binding affinity to BCL7A in human HuT78 cells nuclear and chromatin extracts at 10 uM incubated for 45 mins by mass spectrometry based chemoproteomic binding assay; format: cell-based
Sequence of B-cell CLL/lymphoma 7 protein family member A (Homo sapiens) (Q4VC05 whole entry): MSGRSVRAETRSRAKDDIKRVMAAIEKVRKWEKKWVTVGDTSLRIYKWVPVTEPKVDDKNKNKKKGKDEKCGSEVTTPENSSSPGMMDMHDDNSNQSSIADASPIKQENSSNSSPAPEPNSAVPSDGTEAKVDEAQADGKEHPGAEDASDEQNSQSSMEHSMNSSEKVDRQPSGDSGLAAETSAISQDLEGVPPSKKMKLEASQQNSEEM

[14] = target: B-cell CLL/lymphoma 7 protein family member B (Homo sapiens) (UniProt Q9BQE9); assay: Binding affinity to BCL7B in human HuT78 cells nuclear and chromatin extracts at 10 uM incubated for 45 mins by mass spectrometry based chemoproteomic binding assay; format: cell-based
Sequence of B-cell CLL/lymphoma 7 protein family member B (Homo sapiens) (Q9BQE9 whole entry): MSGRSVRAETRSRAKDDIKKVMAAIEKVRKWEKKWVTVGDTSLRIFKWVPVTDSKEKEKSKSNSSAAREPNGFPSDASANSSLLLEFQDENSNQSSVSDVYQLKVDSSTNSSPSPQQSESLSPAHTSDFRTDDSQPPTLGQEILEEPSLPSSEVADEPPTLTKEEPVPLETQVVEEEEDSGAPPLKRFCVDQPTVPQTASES

[15] = target: Protein polybromo-1 (Homo sapiens) (UniProt Q86U86); assay: Binding affinity to PBRM1 in human HuT78 cells nuclear and chromatin extracts at 10 uM incubated for 45 mins by mass spectrometry based chemoproteomic binding assay; format: cell-based
Sequence of Protein polybromo-1 (Homo sapiens) (Q86U86 whole entry): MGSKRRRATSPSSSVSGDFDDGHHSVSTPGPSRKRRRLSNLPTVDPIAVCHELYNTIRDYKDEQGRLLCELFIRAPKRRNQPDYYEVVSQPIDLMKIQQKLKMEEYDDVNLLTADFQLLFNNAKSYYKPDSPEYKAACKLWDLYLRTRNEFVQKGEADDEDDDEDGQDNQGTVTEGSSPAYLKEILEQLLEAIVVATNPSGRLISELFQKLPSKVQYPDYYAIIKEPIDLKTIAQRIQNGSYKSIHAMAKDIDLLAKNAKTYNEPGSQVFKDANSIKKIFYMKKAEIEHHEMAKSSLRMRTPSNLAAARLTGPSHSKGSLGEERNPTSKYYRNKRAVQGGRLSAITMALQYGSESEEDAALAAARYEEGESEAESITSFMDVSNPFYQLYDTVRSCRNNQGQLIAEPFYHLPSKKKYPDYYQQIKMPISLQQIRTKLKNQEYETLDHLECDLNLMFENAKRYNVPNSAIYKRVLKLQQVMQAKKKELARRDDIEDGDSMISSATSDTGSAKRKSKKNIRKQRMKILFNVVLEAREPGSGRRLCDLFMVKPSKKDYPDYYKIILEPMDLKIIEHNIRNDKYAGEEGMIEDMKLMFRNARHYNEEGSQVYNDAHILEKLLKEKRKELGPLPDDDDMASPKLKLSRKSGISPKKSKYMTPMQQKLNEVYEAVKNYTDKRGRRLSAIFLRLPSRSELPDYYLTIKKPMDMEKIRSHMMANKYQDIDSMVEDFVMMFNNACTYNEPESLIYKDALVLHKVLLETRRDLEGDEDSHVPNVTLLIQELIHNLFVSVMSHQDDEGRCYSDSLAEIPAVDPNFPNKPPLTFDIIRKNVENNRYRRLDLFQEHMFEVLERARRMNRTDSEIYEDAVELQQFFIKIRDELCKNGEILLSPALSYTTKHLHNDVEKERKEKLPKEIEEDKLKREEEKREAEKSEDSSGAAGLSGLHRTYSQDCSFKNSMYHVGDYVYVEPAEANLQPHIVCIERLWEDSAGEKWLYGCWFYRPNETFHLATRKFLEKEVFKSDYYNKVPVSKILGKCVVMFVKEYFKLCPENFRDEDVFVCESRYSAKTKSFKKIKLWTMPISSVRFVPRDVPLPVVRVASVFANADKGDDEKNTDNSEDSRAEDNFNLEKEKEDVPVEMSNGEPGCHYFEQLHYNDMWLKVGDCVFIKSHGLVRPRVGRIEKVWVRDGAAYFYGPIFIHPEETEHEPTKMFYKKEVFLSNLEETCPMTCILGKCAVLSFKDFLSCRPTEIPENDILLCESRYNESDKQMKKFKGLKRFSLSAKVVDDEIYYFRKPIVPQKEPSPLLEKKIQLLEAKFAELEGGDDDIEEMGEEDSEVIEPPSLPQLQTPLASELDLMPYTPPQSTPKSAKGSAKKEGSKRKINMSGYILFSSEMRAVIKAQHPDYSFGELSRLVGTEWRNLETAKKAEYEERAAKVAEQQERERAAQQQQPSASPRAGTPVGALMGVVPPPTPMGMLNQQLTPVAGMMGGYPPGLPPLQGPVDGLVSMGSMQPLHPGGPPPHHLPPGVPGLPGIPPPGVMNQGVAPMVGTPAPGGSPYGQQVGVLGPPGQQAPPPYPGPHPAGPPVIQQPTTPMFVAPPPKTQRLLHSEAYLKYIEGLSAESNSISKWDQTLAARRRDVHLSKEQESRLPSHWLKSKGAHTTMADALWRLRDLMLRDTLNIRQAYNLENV

[16] = target: SWI/SNF-related matrix-associated actin-dependent regulator of chromatin subfamily A member 2 (Homo sapiens) (UniProt P51531); assay: Binding affinity to SMARCA2 in human HuT78 cells nuclear and chromatin extracts at 10 uM incubated for 45 mins by mass spectrometry based chemoproteomic binding assay; format: cell-based
[17] = target: SWI/SNF-related matrix-associated actin-dependent regulator of chromatin subfamily A member 4 (Homo sapiens) (UniProt P51532); assay: Binding affinity to SMARCA4 in human HuT78 cells nuclear and chromatin extracts at 10 uM incubated for 45 mins by mass spectrometry based chemoproteomic binding assay; format: cell-based
Sequence of SWI/SNF-related matrix-associated actin-dependent regulator of chromatin subfamily A member 4 (Homo sapiens) (P51532 whole entry): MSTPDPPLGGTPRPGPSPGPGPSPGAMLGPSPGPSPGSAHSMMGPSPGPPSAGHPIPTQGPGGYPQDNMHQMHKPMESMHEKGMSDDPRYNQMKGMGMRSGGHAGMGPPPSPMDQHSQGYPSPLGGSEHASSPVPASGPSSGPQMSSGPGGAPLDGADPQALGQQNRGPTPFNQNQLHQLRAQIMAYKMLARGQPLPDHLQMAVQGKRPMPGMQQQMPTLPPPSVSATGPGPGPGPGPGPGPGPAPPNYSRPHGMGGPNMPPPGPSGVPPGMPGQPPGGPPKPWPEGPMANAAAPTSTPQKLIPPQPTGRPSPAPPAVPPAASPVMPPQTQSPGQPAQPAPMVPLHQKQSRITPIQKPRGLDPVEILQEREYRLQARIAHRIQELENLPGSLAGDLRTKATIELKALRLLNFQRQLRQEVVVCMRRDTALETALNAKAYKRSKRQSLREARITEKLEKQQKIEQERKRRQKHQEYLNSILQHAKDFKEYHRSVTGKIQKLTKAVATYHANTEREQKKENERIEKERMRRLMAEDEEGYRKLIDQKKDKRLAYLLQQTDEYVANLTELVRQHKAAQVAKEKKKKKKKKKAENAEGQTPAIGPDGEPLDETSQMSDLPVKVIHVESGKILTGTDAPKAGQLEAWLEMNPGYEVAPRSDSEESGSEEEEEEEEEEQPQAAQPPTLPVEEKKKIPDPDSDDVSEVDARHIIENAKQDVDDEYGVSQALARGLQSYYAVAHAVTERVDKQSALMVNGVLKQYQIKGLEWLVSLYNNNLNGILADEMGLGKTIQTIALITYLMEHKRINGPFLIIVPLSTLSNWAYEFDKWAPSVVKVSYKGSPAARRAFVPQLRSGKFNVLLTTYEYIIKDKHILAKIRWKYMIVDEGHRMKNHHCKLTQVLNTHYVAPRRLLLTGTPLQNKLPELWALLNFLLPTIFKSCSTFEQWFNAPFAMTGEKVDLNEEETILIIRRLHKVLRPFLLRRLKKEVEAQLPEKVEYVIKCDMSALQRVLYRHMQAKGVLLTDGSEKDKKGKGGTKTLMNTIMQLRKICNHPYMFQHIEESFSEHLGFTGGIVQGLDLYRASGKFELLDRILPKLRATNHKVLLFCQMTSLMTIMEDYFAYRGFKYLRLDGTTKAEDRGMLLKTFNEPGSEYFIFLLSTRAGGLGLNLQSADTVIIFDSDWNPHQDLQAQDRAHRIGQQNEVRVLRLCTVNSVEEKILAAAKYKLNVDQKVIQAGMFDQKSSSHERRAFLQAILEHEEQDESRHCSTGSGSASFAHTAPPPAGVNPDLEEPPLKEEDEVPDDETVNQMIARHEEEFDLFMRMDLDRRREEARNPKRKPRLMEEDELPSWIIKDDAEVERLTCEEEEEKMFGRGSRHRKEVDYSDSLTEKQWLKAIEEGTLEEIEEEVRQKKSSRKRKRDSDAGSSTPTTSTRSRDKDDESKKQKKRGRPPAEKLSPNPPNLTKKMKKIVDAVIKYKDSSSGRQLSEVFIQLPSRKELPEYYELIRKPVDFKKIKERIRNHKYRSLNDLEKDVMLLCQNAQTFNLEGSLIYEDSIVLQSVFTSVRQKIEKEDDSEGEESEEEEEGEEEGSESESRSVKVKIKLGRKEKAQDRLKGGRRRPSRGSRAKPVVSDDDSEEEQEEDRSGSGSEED

[18] = species: Homo sapiens; assay: Selectivity index, ratio of IC50 for binding affinity to BRD4 (1) (unknown origin) N-terminal bromodomain to IC50 for binding affinity to BRD9 (unknown origin) N-terminal bromodomain
[19] = target: T4, Bromodomain-containing protein 9; remark: listed apart in the source
[20] = species: Homo sapiens; assay: Selectivity index, ratio of IC50 for binding affinity to PCAF (unknown origin) N-terminal bromodomain to IC50 for binding affinity to BRD9 (unknown origin) N-terminal bromodomain

Structure (SMILES) | chromatographic logD [2] | Ki [3] [nM] | Ki [4] [nM] | solubility kinetic [5] [µg/mL] | Papp [6] [×10⁻⁶ cm/s] | Ki [7] [nM] | Ki [9] [nM] | IC50 [10] [nM] | IC50 [11] [nM] | fold selectivity [18] | also measured
COc1cc(-c2cn(C)c(=O)c3cnccc23)c(OC)cc1CN(C)CC(=O)NCCOCCOCCNc1cccc2c1C(=O)N(C1CCC(=O)NC1=O)C2=O (configuration not stated) |  |  |  |  |  |  |  |  |  |  | IC50 [1]: 100 nM
CCCCc1c(NCc2ccccc2N2CCN(C)CC2)cnn(C)c1=O | 3.5 | 501 | > 31600 | ≥ 228 | 25 | > 31600 | 63.1 |  |  |  | Ratio [8]: 0.52
Cc1c(NCc2ccccc2N2CCN(C)CC2)cnn(C)c1=O | 1.6 | 25.1 | 251 | 178 (≈ 544 µM) | 33 | 25100 | 39.8 | 200 | > 50100 | > 250 | Activity [12]: Active; Activity [13]: Active; Activity [14]: Active; Activity [15]: Active; Activity [16]: Active; Activity [17]: Active
C/C=C/Cn1cc(-c2cc(OC)c(C(=O)N3CCOCC3)cc2OC)c2cc[nH]c2c1=O |  |  |  |  |  |  |  |  |  |  | Kd [1]: 100 nM; Kd [19]: 2 nM
Cn1ncc(NCc2ccccc2)c(Cl)c1=O | 3.2 |  |  |  |  |  |  | 2000 | 20000 | 10 | fold selectivity [20]: 6
